From patent US20150315202A1, “CHLORIN DERIVATIVE USEFUL IN PHOTODYNAMIC THERAPY AND DIAGNOSIS” (RMW CHO GROUP LIMITED, priority 2012, published 2015)
Where “and” joins values, the source holds several entries; their conditions need not be identical. Equal entries are not always repeated. Entries after “also recorded” stand apart in the source; their conditions may differ.

Key:
[1] = Singlet oxygen phosphorescence at 1270 nm after pulsed laser excitation; assay type: physicochemical; conditions: for Decay time of photosensitized singlet oxygen phosphorescence / Rise time of photosensitized singlet oxygen phosphorescence: air saturated
Experimental: Singlet oxygen phosphorescence was detected using measurement of infrared phosphorescence at 1270 nm corresponding to the transition of oxygen molecules from the singlet to the triplet state. Phosphorescence was recorded at room temperature with the laser phosphorescence spectrometer described at A. A. Krasnovsky Jr., Photodynamic action and singlet oxygen, Biofizika, 2004, 49, 305-321; and A. A. Krasnovsky Jr., Singlet oxygen and primary mechanisms of photodynamic therapy and photodynamic diseases, In: Photodynamic therapy at the cellular level, ed. A. B. Uzdensky, Research Singpost, Kerala, India, 2007, 17-62. For excitation, nanosecond pulses of 511 nm radiation from a copper-vapour laser (Troitzk, Physics Institute of the Russian Academy of Science) were employed. Laser radiation passed additionally through a green light filter SZS-22 (4 mm), which transmitted laser light and cut off IR laser radiation caused by heating of the laser tube. Pulse duration was 20 ns, pulse energy varied from 18 to 40 μJ and the pulse repetition rate was 12 kHz. The laser light was collimated on the surface of a 1 cm rectangular quartz cuvette. The diameter of the illuminated spot on the surface of the cell was 5 mm. For kinetic measurements another spectrometer was used without a monochromator. In this case, phosphorescence resulting from the right angle to the excitation beam was focused on the photocathode of a cooled S-1 photomultiplier (FEU-112) through a cut-off IR light filter and an interference filter with the transmission maximum at 1270 nm. The phosphorescence spectra were measured using a MS-80 high throughput grid monochromator. In this case, phosphorescence was focused on the entry slit of this monochromator. The bandwidth of the monochromator corresponded to a 20 nm spectral interval. The monochromatic light was focused on the photocathode of a cooled S-1 photomultiplier (FEU-83). The photomultiplier signal was registered using time-correlated single photon counting and averaged over many laser pulses. In most experiments, one-channel on time was equal to 81 ns. When the pigment bleaching reached 10%, the solution was replaced by a fresh one and measurement was continued. […] Reasonable phosphorescent curves were obtained after 10-20 minutes signal accumulation and therefore samples were changed many times. As described previously (D. A. Butorina, A. A. Krasnovsky Jr. and A. V. Priezzev, Investigation of the kinetic parameters of singlet molecular oxygen in aqueous porphyrin solutions, Influence of detergents and the quencher sodium azide, Biofizika, 2003, 48, 189-196; A. A. Krasnovsky Jr., Luminescence and photochemical studies of singlet oxygen photonics, J. Photochem. Photobiol. A: Chem., 2008, 196, 210-218; and N. Kuznetsova, D. Makarov, O. Yuzhakova, A. Strizhakov, Y. Roumbal, L. Ulanova, A. Krasnovsky and O. Kaliya, Photophysical properties and photodynamic activity of octacationic oxotitanium(IV) phthalocyanines, Photochemical Photobiological Sciences, 2009, 8, 1724-1733), for computer analysis the following two-exponential equation was used: […]
I(t)I0·[exp(−kdecay·t)−exp(−krise·t)]+n
where kdecay and krise are the rate constants of the decay and rise phases of the phosphorescence curves after a laser pulse, n is the off noise of the photomultiplier, I0 is the zero-time phosphorescence intensity, and I(t) is the phosphorescence intensity at time t. To reduce contribution of the luminescence of the pigment in the quartz cuvette, which was observed shortly after laser pulses, readings were taken starting from 400 ns after laser pulses in ethanol and 1 μs in water. In addition, phosphorescence and kinetic traces were measured also from the control chlorin e4 sodium solutions containing high concentration of sodium azide, which completely quenched singlet oxygen. […]

[2] = system: invasive ductile breast cancer and lymph node metastases; test: In vivo studies Example 1: patient, oral chlorin e4 sodium plus laser and LED light; set-up: species or system human
Experimental: A patient with invasive ductile breast cancer and lymph node metastases in the right arm pit, was treated successfully. Prior to treatment a large cancer mass in the right breast was observed and a small cancer mass in the right arm pit. The treatment consisted of three courses. For each course, five doses of 62.5-187.5 mg chlorin e4 sodium were administered orally over the course of eight days. 24-48 hours after each oral dose of chlorin e4 sodium, the patient was treated with laser and LED light having a wavelength of 660 nm and 760 nm.
Subsequently the patient was treated with two further courses. Again, for each course, five doses of 62.5-187.5 mg chlorin e4 sodium were administered orally over the course of eight days. 24-48 hours after each oral dose of chlorin e4 sodium, the patient was treated with laser and LED light having a wavelength of 660 nm and 760 nm. Additionally an interstitial light treatment using a fine needle was performed on the breast with an optical fibre laser having a wavelength of 660 nm and 760 nm.

[3] = system: advanced metastatic kidney disease with metastases in the gall bladder, liver and lung; test: In vivo studies Example 3: patient, oral chlorin e4 sodium plus laser and LED light; set-up: species or system human
Experimental: (§1) A patient with advanced metastatic kidney disease with metastases in the gall bladder, liver and lung, was treated successfully. The treatment consisted of three courses. For each course, five doses of 62.5-187.5 mg chlorin e4 sodium were administered orally over the course of eight days. 24-48 hours after each oral dose of chlorin e4 sodium, the patient was treated with laser and LED light having a wavelength of 660 nm and 760 nm.
Subsequently the patient was treated with a further two courses. Again, for each course, five doses of 62.5-187.5 mg chlorin e4 sodium were administered orally over the course of eight days. 24-48 hours after each oral dose of chlorin e4 sodium, the patient was treated with laser and LED light having a wavelength of 660 nm and 760 nm. Additionally an interstitial light treatment using a fine needle was performed on the liver and lung with an optical fibre laser having a wavelength of 660 nm and 760 nm.

[4] = system: breast cancer in the right breast; test: In vivo studies Example 9: patient, oral chlorin e4 sodium plus laser and LED light; set-up: species or system human
Experimental: as §1, with “breast cancer” for “advanced metastatic kidney disease with metastases”, “right breast” for “gall bladder, liver and lung,”

Compound: C=Cc1c(C)c2cc3nc(c(C)c4[nH]c(cc5nc(cc1[nH]2)C(C)=C5CC)c(C)c4C(=O)O)[C@@H](CCC(=O)O)[C@@H]3C [chlorin e4 sodium]
- Pigment bleaching under laser irradiation ([1]; 511 nm laser pulses, solutions changed after each 60-180 s irradiation): bleached rather rapidly
- Decay time of photosensitized singlet oxygen phosphorescence ([1]; Ethanol): 13.5 μs and 13.5 ± 0.3 μs
- Rise time of photosensitized singlet oxygen phosphorescence ([1]; Ethanol): 0.3 ± 0.3 μs
- Decay time of photosensitized singlet oxygen phosphorescence ([1]; Water + 0.2M SDS): 3.85 ± 0.3 μs
- Rise time of photosensitized singlet oxygen phosphorescence ([1]; Water + 0.2M SDS): 1.2 ± 0.3 μs
- Decay time of photosensitized singlet oxygen phosphorescence ([1]; Water): 3.3 ± 0.3 μs
- Rise time of photosensitized singlet oxygen phosphorescence ([1]; Water): 1.8 ± 0.4 μs
- Rise time of singlet oxygen phosphorescence ([1]; ethanol): 300 ns
- Singlet oxygen quantum yield ([1]; ethanol, from phosphorescence kinetic curves, reference TPPS): 0.63±0.05
- Photosensitizing activity ([1]; water without SDS): lower than in ethanol
- Response in the breast and lymph nodes (PET/CT) ([2]; after the fifth and final treatment course): complete response
- Reduction in size of large cancer mass in the breast (doppler ultrasound) ([2]; after the fourth treatment course): about 25%
- Size of large cancer mass in the breast (doppler ultrasound) ([2]; after three courses): had not reduced in size
- Vascularity of large cancer mass in the breast (doppler ultrasound) ([2]; after three courses): almost no vascularity
- Vascularity of smaller lymph node cancer mass (doppler ultrasound) ([2]; after three courses): almost no vascularity
- Size of smaller lymph node cancer mass ([2]; after three courses, reduced from 1.9 cm): 1 cm
- Reactions at the breast tumour site ([2]; inflammatory response after each course, burning sensation towards the end of the second course): inflammatory response; also recorded: burning sensation
- Patient status ([2]; two years and three months after starting, five months after completion of treatment): alive and well
- Response (PET/CT) ([3]; after a further two courses with interstitial light on liver and lung): good treatment response
- Metastasis ([3]; after three courses): No further metastasis was observed
- Tumours throughout the body (PET/CT) ([3]; before and two, three, five and 15 months after three courses): some tumours disappeared altogether and the remaining tumours reduced in size
- Side effects ([3]; five courses): no side effects
- Survival time ([3]; life expectancy prior to treatment only six months): two years and four months
- Response of the breasts (mammography, ultrasound and PET/CT) ([4]; before and after three courses): complete response
- Patient status ([4]; one year and seven months after starting, 10 months after completion of treatment): alive and well
- Side effects ([4]; three courses): no side effects
